Reference: US4898858A, “Cephalosporin derivatives and antibiotics containing the same” (Meiji Seika Kaisha Ltd., priority 1985, dated 1990)
Values after ≈ are worked out from the molar mass of the structure shown.

Key:
[1] = tested on: Staphylococcus aureus 606; experiment: minimum growth-inhibitory concentration (MIC) in vitro; type: cell-based
[2] = tested on: Staphylococcus aureus 606 E-25; experiment: as above; type: cell-based; conditions: 606E25
[3] = tested on: Staphylococcus aureus 209P JC-1; experiment: as above; type: cell-based
[4] = tested on: Streptocuccus faecalis W-75; experiment: as above; type: cell-based
[5] = tested on: Escherichia coli ML1410; experiment: as above; type: cell-based
[6] = tested on: Escherichia coli NIHJ JC-2; experiment: as above; type: cell-based; conditions: NIHJJC2; Escherichia coli NIHJ JC-2; in vitro; read-out: MIC-value
[7] = tested on: Escherichia coli No.29; experiment: as above; type: cell-based
[8] = tested on: Klebsiella pneumoniae GN-69; experiment: as above; type: cell-based; conditions: GN69; Klebsiella pneumoniae GN-69; in vitro; read-out: MIC-value
[9] = tested on: Klebsiella pneumoniae GN-118; experiment: as above; type: cell-based; conditions: GN118
[10] = tested on: Salmonella typhimurium LT-2; experiment: as above; type: cell-based; conditions: Salmonella enterica
[11] = tested on: Salmonella enteritidis No.11; experiment: as above; type: cell-based; conditions: Salmonella enterica
[12] = tested on: Proteus vulgais GN-76; experiment: as above; type: cell-based
[13] = tested on: Proteus morganii 1510; experiment: as above; type: cell-based; conditions: Morganella morganii
[14] = tested on: Proteus rettgeri GN-624; experiment: as above; type: cell-based; conditions: Providencia rettgeri, GN624
[15] = tested on: Proteus rettgeri J-0026; experiment: as above; type: cell-based; conditions: Providencia rettgeri, J0026
[16] = tested on: Enterobacter Cloacae G-0005; experiment: as above; type: cell-based
[17] = tested on: Enterobacter Cloacae G-0008; experiment: as above; type: cell-based
[18] = tested on: Serratia marcescens GN-10857; experiment: as above; type: cell-based; conditions: GN10857
[19] = tested on: Serratia marcescens GN-629; experiment: as above; type: cell-based; conditions: GN629
[20] = tested on: Pseudomonas aeruginosa GN-10362; experiment: as above; type: cell-based; conditions: GN10362
[21] = tested on: Pseudomonas aeruginosa MB-3833; experiment: as above; type: cell-based; conditions: MB3833
[22] = tested on: Pseudomonas aeruginosa E-2; experiment: as above; type: cell-based; conditions: E2
[23] = tested on: Proteus vulgais GN-76/C-1; experiment: as above; conditions: for MIC: Proteus vulgaris, GN76, read-out: MIC-value
[24] = tested on: Pseudomonas aeniginosa; experiment: MIC, comparison of the compounds of the present invention and the relevant compounds; type: cell-based; conditions: Table 2, strain not given, by substituent B

| SMILES | MIC [1] | MIC [2] | MIC [4] | MIC [5] | MIC [6] | MIC [8] | MIC [9] | MIC [10] | MIC [11] | MIC [12] | MIC [13] | MIC [14] | MIC [15] | MIC [16] | MIC [17] | MIC [18] | MIC [19] | MIC [21] | MIC [22] | MIC [23] | further results |
| --- | --- | --- | --- | --- | --- | --- | --- | --- | --- | --- | --- | --- | --- | --- | --- | --- | --- | --- | --- | --- | --- |
| CCC(O/N=C(\C(=O)N[C@@H]1C(=O)N2C(C(=O)[O-])=C(CSc3cc[n+](CCF)cc3)CS[C@H]12)c1csc(N)n1)C(=O)O (stereo partly shown) [Example 4] | 6.25 µg/mL (≈ 10 µM) | 6.25 µg/mL (≈ 10 µM) | 6.25 µg/mL (≈ 10 µM) | 0.39 µg/mL (≈ 0.624 µM) | 0.39 µg/mL (≈ 0.624 µM) | 0.1 µg/mL (≈ 0.16 µM) | 0.1 µg/mL (≈ 0.16 µM) | 0.2 µg/mL (≈ 0.32 µM) | < 0.025 µg/mL | 0.05 µg/mL (≈ 0.08 µM) | 3.13 µg/mL (≈ 5.01 µM) | 0.05 µg/mL (≈ 0.08 µM) | 0.78 µg/mL (≈ 1.25 µM) | 0.39 µg/mL (≈ 0.624 µM) | 0.39 µg/mL (≈ 0.624 µM) | 3.13 µg/mL (≈ 5.01 µM) | 0.78 µg/mL (≈ 1.25 µM) | 3.13 µg/mL (≈ 5.01 µM) | 3.13 µg/mL (≈ 5.01 µM) | 0.2 µg/mL (≈ 0.32 µM) | MIC [3]: 6.25 µg/mL (≈ 10 µM); MIC [7]: 0.39 µg/mL (≈ 0.624 µM); MIC [20]: 3.13 µg/mL (≈ 5.01 µM) |
| CC[n+]1ccc(SCC2=C(C(=O)[O-])N3C(=O)[C@@H](NC(=O)/C(=N\O[C@@H](C)C(=O)O)c4csc(N)n4)[C@H]3SC2)cc1 [Example 8] | 1.56 µg/mL (≈ 2.63 µM) | 3.13 µg/mL (≈ 5.28 µM) | 0.78 µg/mL (≈ 1.32 µM) | 0.1 µg/mL (≈ 0.169 µM) | 0.1 µg/mL (≈ 0.169 µM) | < 0.025 µg/mL | < 0.025 µg/mL | < 0.025 µg/mL | < 0.025 µg/mL | 0.025 µg/mL (≈ 0.0422 µM) | 0.78 µg/mL (≈ 1.32 µM) | 0.05 µg/mL (≈ 0.0844 µM) | 0.05 µg/mL (≈ 0.0844 µM) | 0.05 µg/mL (≈ 0.0844 µM) | 0.05 µg/mL (≈ 0.0844 µM) | 0.39 µg/mL (≈ 0.658 µM) | 0.1 µg/mL (≈ 0.169 µM) | 0.78 µg/mL (≈ 1.32 µM) | 0.78 µg/mL (≈ 1.32 µM) | 0.05 µg/mL (≈ 0.0844 µM) | – |
| C[C@@H](O/N=C(\C(=O)N[C@@H]1C(=O)N2C(C(=O)[O-])=C(CSc3cc[n+](CCF)cc3)CS[C@H]12)c1csc(N)n1)C(=O)O [Example 2, (6R,7R)-7-[(Z)-2-(2-Aminothiazol-4-yl)-2-{(1R)-carboxyethoxyimino}acetamido]-3-[{1-(2-fluoroethyl)pyridinium}-4-ylthiomethyl]-ceph-3-em-4-carboxylate] | 6.25 µg/mL (≈ 10.2 µM) | 6.25 µg/mL (≈ 10.2 µM) | 3.13 µg/mL (≈ 5.13 µM) | 0.2 µg/mL (≈ 0.328 µM) | 0.1 µg/mL (≈ 0.164 µM) | 0.05 µg/mL (≈ 0.0819 µM) | 0.05 µg/mL (≈ 0.0819 µM) | 0.05 µg/mL (≈ 0.0819 µM) | < 0.025 µg/mL | 0.1 µg/mL (≈ 0.164 µM) | 1.56 µg/mL (≈ 2.55 µM) | 0.1 µg/mL (≈ 0.164 µM) | 0.2 µg/mL (≈ 0.328 µM) | 0.2 µg/mL (≈ 0.328 µM) | 0.2 µg/mL (≈ 0.328 µM) | 3.13 µg/mL (≈ 5.13 µM) | 0.39 µg/mL (≈ 0.639 µM) | 3.13 µg/mL (≈ 5.13 µM) | 3.13 µg/mL (≈ 5.13 µM) | 0.1 µg/mL (≈ 0.164 µM) | MIC [3]: 3.13 µg/mL (≈ 5.13 µM); MIC [7]: 0.1 µg/mL (≈ 0.164 µM); MIC [20]: 3.13 µg/mL (≈ 5.13 µM) |
| C[C@H](O/N=C(\C(=O)N[C@@H]1C(=O)N2C(C(=O)[O-])=C(CSc3cc[n+](C)cc3)CS[C@H]12)c1csc(N)n1)C(=O)O [drawing 15] | – | – | – | – | – | – | – | – | – | – | – | – | – | – | – | – | – | – | – | – | MIC [24]: 0.78 µg/mL (≈ 1.35 µM); MIC-value ([23]; Table 2, Proteus vulgaris GN76/C-1, by substituent B): 0.05 µg/mL (≈ 0.0864 µM) |
| CC(O/N=C(\C(=O)N[C@@H]1C(=O)N2C(C(=O)[O-])=C(CSc3cc[n+](CCF)cc3)CS[C@H]12)c1csc(N)n1)C(=O)O (stereo partly drawn) [Example 1, (6R,7R)-7-{(Z)-2-(2-Aminothiazol-4-yl)-2-(1-carboxyethoxyimino)acetamido}-3-[{1-(2-fluoroethyl)pyridinium}-4-ylthiomethyl]-ceph-3-em-4-carboxylate] | 3.13 µg/mL (≈ 5.13 µM) | 3.13 µg/mL (≈ 5.13 µM) | 3.13 µg/mL (≈ 5.13 µM) | 0.1 µg/mL (≈ 0.164 µM) | 0.1 µg/mL (≈ 0.164 µM) | < 0.025 µg/mL | < 0.025 µg/mL | < 0.025 µg/mL | < 0.025 µg/mL | 0.05 µg/mL (≈ 0.0819 µM) | 1.56 µg/mL (≈ 2.55 µM) | 0.05 µg/mL (≈ 0.0819 µM) | 0.1 µg/mL (≈ 0.164 µM) | 0.05 µg/mL (≈ 0.0819 µM) | 0.1 µg/mL (≈ 0.164 µM) | 0.78 µg/mL (≈ 1.28 µM) | 0.1 µg/mL (≈ 0.164 µM) | 1.56 µg/mL (≈ 2.55 µM) | 1.56 µg/mL (≈ 2.55 µM) | 0.1 µg/mL (≈ 0.164 µM) | MIC [3]: 3.13 µg/mL (≈ 5.13 µM); MIC [7]: 0.1 µg/mL (≈ 0.164 µM); MIC [20]: 1.56 µg/mL (≈ 2.55 µM) |
